# Measured values from PMC5734604 (Journal of Medicinal Chemistry, 2017).
# “Also recorded” adds a separate entry of the source.
# Legend:
# human CB1 receptor [1] = target: T1, human CB1 receptor (Homo sapiens, UniProt P21554); test: biochemical; assay type: binding; conditions: for residence time: read-out: RT (residence time)
# human CB1 receptor [2] = target: T1, human CB1 receptor; test: [35S]GTPγS binding antagonism assay, hCB1 HEK-293 membranes; assay type: biochemical; conditions: recombinant human CB1 receptors on HEK-293 cell membranes, 30 °C; SD (n = 2) or SEM (n ≥ 3)
# human CB1 receptor [3] = target: T1, human CB1 receptor; conditions: association at 30 °C
# human CB1 receptor [4] = target: T1, human CB1 receptor
# T1 sequence (P21554 whole entry): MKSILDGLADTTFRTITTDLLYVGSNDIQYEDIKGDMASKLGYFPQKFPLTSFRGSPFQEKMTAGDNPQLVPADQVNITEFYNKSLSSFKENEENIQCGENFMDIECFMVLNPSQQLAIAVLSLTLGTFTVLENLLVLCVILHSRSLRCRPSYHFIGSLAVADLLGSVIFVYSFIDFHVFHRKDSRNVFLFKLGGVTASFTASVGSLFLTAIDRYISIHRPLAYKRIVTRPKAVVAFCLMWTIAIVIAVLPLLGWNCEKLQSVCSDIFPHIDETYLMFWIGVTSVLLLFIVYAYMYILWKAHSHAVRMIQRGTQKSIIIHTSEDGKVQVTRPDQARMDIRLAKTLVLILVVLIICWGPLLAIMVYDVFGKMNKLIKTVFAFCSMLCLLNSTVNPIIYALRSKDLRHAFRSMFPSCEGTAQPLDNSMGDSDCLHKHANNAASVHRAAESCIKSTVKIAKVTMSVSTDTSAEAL
Compound,koff (human CB1 receptor [1]),kon (human CB1 receptor [1]),residence time (human CB1 receptor [1]),[35S]GTPγS binding pIC50 ± SD or SEM (human CB1 receptor [2]),also measured
"CCCS(=O)(=O)Oc1ccc(-n2c(-c3ccc(Cl)cc3Cl)nc(C(=O)NN3CCCCC3)c2C)cc1 [11b, 4-(2-(2,4-Dichlorophenyl)-5-methyl-4-(piperidin-1-ylcarbamoyl)-1H-imidazol-1-yl)phenyl propane-1-sulfonate]",0.00022 s⁻¹,300000 M⁻¹ s⁻¹,78 ± 5 min,–,–
"CCCCS(=O)(=O)Oc1ccc(-n2c(-c3ccc(Cl)cc3Cl)nc(C(=O)NN3CCCCC3)c2C)cc1 [11e, 4-(2-(2,4-Dichlorophenyl)-5-methyl-4-(piperidin-1-ylcarbamoyl)-1H-imidazol-1-yl)phenyl butane-1-sulfonate]",–,–,–,8.9 ± 0.05,–
"Cc1c(C(=O)NN2CCCCC2)nc(-c2ccc(Cl)cc2Cl)n1-c1ccc(OS(=O)(=O)CCC(C)C)cc1 [11g, 4-(2-(2,4-Dichlorophenyl)-5-methyl-4-(piperidin-1-ylcarbamoyl)-1H-imidazol-1-yl)phenyl 3-methylbutane-1-sulfonate]",–,–,–,8.9 ± 0.1,–
"Cc1c(C(=O)Nc2ccc(F)nc2)nc(-c2ccc(Cl)cc2Cl)n1-c1ccc(OS(=O)(=O)CCC(F)(F)F)cc1 [14f, 4-(2-(2,4-Dichlorophenyl)-4-(6-fluoropyridin-3-ylcarbamoyl)-5-methyl-1H-imidazol-1-yl)phenyl 3,3,3-trifluoropropane-1-sulfonate]",0.00027 s⁻¹,720000 M⁻¹ s⁻¹,62 ± 10 min,–,–
CCCCCCC(C)(C)c1ccc([C@@H]2C[C@H](O)CC[C@H]2CCCO)c(O)c1 [CP55940],–,–,–,–,time at which binding approached equilibrium (human CB1 receptor [3]): approximately 25 min
"Cc1c(C(=O)Nc2ccc(C(F)(F)F)cn2)nc(-c2ccc(Cl)cc2Cl)n1-c1ccc(OS(=O)(=O)CCC(F)(F)F)cc1 [compound 28, 4-(2-(2,4-Dichlorophenyl)-5-methyl-4-(5-(trifluoromethyl)pyridin-2-ylcarbamoyl)-1H-imidazol-1-yl)phenyl 3,3,3-trifluoropropane-1-sulfonate]",7.8e-05 s⁻¹,350000 M⁻¹ s⁻¹,260 ± 56 min,–,activity of compound alone (absence of CP55940) (human CB1 receptor [4]): inverse agonism; type of antagonism of CP55940 action (human CB1 receptor [4]): insurmountable antagonism; also recorded: insurmountability
